From the kinase profiling compilation of Christmann-Franck et al. (2016)

Key:
Assay in all cases: KINOMEscan competition binding
Conditions in all cases: compound 10.0 µM
[1] = target: AAK1 (human) (UniProt Q2M2I8)
[2] = target: ANKK1 (human) (UniProt Q8NFD2)
[3] = target: BMPR1B (human) (UniProt O00238)
[4] = target: CAMK2A (human) (UniProt Q9UQM7)
[5] = target: CAMK2G (human) (UniProt Q13555)
[6] = target: CDK16 (human) (UniProt Q00536)
[7] = target: CSNK1G1 (human) (UniProt Q9HCP0)
[8] = target: EIF2AK2 (human) (UniProt P19525)
[9] = target: GAK (human) (UniProt O14976)
[10] = target: LATS2 (human) (UniProt Q9NRM7)
[11] = target: MAP2K6 (human) (UniProt P52564)
[12] = target: MAPK10 (human) (UniProt P53779)
[13] = target: MAPK14 (human) (UniProt Q16539)
[14] = target: MAPK8 (human) (UniProt P45983)
[15] = target: MAPK9 (human) (UniProt P45984)
[16] = target: MINK1 (human) (UniProt Q8N4C8)
[17] = target: PAK7 (human) (UniProt Q9P286)
[18] = target: PIK3CB (human) (UniProt P42338)
[19] = target: PIM1 (human) (UniProt P11309)
[20] = target: PLK4 (human) (UniProt O00444)
[21] = target: RPS6KA1 KD2 (human) (UniProt Q15418)
[22] = target: RPS6KA2 KD2 (human) (UniProt Q15349)
[23] = target: RPS6KA6 KD2 (human) (UniProt Q9UK32)
[24] = target: SRPK1 (human) (UniProt Q96SB4)
[25] = target: STK25 (human) (UniProt O00506)
[26] = target: STK38L (human) (UniProt Q9Y2H1)
[27] = target: TAOK3 (human) (UniProt Q9H2K8)
[28] = target: TLK1 (human) (UniProt Q9UKI8)
[29] = target: TLK2 (human) (UniProt Q86UE8)
[30] = target: TNIK (human) (UniProt Q9UKE5)
[31] = target: ULK1 (human) (UniProt O75385)
[32] = target: ULK3 (human) (UniProt Q6PHR2)
[33] = target: ZAP70 (human) (UniProt P43403)
[34] = target: AKT2 (human) (UniProt P31751)
[35] = target: CDK11A (human) (UniProt Q9UQ88)
[36] = target: CSNK2A2 (human) (UniProt P19784)
[37] = target: DAPK2 (human) (UniProt Q9UIK4)
[38] = target: HIPK1 (human) (UniProt Q86Z02)
[39] = test system: PIK3CA (human), P42336 [E545K]
[40] = target: PIK3CG (human) (UniProt P48736)
[41] = target: PIM2 (human) (UniProt Q9P1W9)
[42] = target: PIM3 (human) (UniProt Q86V86)
[43] = target: CHEK1 (human) (UniProt O14757)
[44] = target: DAPK3 (human) (UniProt O43293)
[45] = target: DCLK1 (human) (UniProt O15075)
[46] = target: DCLK2 (human) (UniProt Q8N568)
[47] = test system: EIF2AK4 KD2 (human), Q9P2K8 [S808G]
[48] = target: MAP2K3 (human) (UniProt P46734)
[49] = target: PLK1 (human) (UniProt P53350)
[50] = target: PLK3 (human) (UniProt Q9H4B4)
[51] = target: PRKD1 (human) (UniProt Q15139)
[52] = target: PRKD2 (human) (UniProt Q9BZL6)
[53] = target: RIOK2 (human) (UniProt Q9BVS4)
[54] = target: RPS6KA4 KD2 (human) (UniProt O75676)
[55] = target: STK33 (human) (UniProt Q9BYT3)
[56] = target: TSSK1B (human) (UniProt Q9BXA7)
[57] = target: TTK (human) (UniProt P33981)
[58] = target: ULK2 (human) (UniProt Q8IYT8)

MINK1 (human), sequence (Q8N4C8 whole entry, looked up): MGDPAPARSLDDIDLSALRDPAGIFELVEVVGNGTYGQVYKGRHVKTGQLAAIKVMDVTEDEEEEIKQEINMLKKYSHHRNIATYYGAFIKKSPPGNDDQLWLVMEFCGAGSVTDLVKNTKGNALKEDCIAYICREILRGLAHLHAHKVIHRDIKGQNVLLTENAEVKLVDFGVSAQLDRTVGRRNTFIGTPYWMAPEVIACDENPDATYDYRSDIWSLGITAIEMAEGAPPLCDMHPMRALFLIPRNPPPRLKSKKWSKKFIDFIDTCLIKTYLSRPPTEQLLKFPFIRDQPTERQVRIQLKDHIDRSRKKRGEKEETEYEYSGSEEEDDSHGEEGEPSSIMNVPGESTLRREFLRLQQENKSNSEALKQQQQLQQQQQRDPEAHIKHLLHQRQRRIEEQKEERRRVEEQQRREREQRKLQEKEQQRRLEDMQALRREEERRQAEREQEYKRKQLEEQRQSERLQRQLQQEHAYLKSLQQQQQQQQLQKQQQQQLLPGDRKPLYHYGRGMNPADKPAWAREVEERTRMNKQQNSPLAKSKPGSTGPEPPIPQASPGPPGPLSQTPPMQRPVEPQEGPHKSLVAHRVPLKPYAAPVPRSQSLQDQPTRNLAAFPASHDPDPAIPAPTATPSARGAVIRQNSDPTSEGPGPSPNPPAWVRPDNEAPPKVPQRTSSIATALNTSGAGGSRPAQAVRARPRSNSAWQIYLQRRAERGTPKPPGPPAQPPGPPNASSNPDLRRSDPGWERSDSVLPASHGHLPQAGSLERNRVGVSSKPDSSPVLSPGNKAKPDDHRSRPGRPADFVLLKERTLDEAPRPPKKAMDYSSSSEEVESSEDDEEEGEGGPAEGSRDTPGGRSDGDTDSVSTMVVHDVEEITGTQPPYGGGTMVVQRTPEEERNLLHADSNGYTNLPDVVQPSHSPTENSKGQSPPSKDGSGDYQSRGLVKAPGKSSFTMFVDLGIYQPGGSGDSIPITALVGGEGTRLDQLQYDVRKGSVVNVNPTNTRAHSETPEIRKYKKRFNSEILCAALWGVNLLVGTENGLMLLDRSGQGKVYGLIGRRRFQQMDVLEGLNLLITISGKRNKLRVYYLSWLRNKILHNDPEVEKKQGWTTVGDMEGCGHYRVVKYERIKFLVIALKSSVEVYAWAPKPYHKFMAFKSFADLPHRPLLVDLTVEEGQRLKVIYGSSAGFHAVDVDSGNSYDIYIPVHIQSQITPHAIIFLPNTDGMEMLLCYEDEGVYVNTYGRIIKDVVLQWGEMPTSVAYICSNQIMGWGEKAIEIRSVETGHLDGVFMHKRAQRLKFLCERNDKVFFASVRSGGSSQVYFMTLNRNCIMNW
GAK (human), sequence (O14976 whole entry, looked up): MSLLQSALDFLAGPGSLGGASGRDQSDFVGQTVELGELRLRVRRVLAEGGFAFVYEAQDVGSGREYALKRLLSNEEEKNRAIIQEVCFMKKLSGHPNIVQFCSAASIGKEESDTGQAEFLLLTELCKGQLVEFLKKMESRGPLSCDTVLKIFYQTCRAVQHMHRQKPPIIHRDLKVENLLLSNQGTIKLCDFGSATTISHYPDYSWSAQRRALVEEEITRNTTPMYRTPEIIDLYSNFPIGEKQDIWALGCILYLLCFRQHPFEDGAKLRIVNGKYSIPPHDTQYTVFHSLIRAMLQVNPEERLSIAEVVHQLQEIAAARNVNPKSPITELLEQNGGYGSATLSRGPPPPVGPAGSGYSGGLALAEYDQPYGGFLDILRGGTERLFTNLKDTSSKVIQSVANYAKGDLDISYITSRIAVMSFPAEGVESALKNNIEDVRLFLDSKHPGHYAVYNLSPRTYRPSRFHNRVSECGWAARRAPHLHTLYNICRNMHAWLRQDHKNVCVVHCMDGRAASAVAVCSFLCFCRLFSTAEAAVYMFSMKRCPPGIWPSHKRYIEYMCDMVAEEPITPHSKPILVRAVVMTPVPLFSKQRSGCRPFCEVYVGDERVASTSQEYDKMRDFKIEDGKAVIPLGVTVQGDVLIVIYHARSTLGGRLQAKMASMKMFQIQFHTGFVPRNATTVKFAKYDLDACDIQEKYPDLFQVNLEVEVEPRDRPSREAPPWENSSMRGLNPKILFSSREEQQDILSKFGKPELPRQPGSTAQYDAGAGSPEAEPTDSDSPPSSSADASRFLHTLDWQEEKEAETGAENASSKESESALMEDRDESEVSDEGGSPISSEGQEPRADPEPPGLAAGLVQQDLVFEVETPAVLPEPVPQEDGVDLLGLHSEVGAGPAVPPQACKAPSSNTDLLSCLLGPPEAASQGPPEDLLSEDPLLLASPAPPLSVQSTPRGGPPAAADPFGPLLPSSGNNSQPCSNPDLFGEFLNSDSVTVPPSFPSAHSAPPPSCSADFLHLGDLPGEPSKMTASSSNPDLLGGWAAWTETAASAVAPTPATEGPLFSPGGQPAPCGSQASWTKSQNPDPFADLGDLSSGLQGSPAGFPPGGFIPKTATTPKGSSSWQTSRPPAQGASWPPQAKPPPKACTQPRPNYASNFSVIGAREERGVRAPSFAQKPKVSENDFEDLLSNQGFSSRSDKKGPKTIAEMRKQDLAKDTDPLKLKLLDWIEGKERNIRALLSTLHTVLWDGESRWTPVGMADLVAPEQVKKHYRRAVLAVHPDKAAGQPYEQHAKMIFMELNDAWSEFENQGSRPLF
PIM1 (human), sequence (P11309 whole entry, looked up): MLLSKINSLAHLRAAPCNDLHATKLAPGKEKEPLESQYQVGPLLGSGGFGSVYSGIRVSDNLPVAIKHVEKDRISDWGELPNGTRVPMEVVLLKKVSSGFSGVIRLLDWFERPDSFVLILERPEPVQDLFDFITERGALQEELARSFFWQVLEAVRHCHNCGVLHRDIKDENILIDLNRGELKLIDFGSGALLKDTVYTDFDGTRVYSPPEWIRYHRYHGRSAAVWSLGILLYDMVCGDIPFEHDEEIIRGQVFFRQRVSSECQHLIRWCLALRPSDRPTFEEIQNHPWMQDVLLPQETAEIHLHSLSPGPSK
ULK3 (human), sequence (Q6PHR2 whole entry, looked up): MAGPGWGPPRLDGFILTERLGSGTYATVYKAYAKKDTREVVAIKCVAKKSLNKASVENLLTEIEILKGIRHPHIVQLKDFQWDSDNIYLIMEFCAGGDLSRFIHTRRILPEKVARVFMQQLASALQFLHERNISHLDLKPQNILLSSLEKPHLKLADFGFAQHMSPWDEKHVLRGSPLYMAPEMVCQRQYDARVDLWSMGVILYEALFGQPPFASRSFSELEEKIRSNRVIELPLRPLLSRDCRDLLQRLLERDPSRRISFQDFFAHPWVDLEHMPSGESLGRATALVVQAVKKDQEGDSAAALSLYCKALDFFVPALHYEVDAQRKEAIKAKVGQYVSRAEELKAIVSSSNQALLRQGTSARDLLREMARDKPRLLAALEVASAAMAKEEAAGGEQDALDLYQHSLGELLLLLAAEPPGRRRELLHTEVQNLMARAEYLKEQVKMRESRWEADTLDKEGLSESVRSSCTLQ
RPS6KA6 KD2 (human), sequence (Q9UK32 whole entry, looked up): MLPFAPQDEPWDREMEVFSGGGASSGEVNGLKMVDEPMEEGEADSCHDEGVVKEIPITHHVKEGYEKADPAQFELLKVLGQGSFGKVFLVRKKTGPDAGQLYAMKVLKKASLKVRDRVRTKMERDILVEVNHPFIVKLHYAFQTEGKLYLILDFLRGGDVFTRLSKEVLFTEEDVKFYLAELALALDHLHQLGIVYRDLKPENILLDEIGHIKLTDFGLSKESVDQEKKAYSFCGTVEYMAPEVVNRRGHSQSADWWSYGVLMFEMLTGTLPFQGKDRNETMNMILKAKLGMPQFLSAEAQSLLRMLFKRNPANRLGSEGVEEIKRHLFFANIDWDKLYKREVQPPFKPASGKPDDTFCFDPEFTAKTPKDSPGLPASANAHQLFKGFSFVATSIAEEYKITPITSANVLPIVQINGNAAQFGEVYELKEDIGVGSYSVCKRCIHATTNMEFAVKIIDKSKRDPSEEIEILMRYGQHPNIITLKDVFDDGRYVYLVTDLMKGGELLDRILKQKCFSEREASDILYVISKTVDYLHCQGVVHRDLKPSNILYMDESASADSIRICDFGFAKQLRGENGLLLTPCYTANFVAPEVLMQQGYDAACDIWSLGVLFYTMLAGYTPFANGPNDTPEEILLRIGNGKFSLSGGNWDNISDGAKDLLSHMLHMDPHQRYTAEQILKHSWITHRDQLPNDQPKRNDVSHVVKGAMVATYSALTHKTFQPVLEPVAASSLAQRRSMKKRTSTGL
RPS6KA2 KD2 (human), sequence (Q15349 whole entry, looked up): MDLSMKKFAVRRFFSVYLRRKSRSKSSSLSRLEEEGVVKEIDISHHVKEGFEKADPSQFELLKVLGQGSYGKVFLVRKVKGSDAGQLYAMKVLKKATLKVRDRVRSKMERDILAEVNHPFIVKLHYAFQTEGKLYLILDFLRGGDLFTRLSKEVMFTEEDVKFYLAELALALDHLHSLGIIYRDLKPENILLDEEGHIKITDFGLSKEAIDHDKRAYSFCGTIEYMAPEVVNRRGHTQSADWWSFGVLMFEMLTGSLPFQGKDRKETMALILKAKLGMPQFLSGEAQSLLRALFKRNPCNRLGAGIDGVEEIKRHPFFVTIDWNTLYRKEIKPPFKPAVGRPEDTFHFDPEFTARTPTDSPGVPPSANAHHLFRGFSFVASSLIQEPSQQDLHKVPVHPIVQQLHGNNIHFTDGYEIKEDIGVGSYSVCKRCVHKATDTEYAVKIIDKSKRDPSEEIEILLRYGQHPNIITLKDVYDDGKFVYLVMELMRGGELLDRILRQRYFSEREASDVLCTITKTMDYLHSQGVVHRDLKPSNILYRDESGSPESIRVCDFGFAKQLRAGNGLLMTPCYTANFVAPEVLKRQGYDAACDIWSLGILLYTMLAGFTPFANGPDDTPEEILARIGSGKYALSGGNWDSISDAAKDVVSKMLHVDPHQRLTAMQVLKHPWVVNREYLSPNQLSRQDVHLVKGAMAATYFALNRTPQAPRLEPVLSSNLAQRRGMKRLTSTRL

## NS(=O)(=O)c1ccc(-c2ccc(/C=C3\SC(=S)N(CC(=O)O)C3=O)o2)cc1
[1]
  kinase still bound, per cent of control: 34%
[2]
  kinase still bound, per cent of control: 31%
[3]
  kinase still bound, per cent of control: 27%
[4]
  kinase still bound, per cent of control: 34%
[5]
  kinase still bound, per cent of control: 33%
[6]
  kinase still bound, per cent of control: 0.35%
[7]
  kinase still bound, per cent of control: 27%
[8]
  kinase still bound, per cent of control: 32%
[9]
  kinase still bound, per cent of control: 20%
[10]
  kinase still bound, per cent of control: 25%
[11]
  kinase still bound, per cent of control: 32%
[12]
  kinase still bound, per cent of control: 30%
[13]
  kinase still bound, per cent of control: 20%
[14]
  kinase still bound, per cent of control: 22%
[15]
  kinase still bound, per cent of control: 21%
[16]
  kinase still bound, per cent of control: 23%
[17]
  kinase still bound, per cent of control: 22%
[18]
  kinase still bound, per cent of control: 29%
[19]
  kinase still bound, per cent of control: 33%
[20]
  kinase still bound, per cent of control: 0.35%
[21]
  kinase still bound, per cent of control: 29%
[22]
  kinase still bound, per cent of control: 22%
[23]
  kinase still bound, per cent of control: 32%
[24]
  kinase still bound, per cent of control: 22%
[25]
  kinase still bound, per cent of control: 34%
[26]
  kinase still bound, per cent of control: 19%
[27]
  kinase still bound, per cent of control: 34%
[28]
  kinase still bound, per cent of control: 22%
[29]
  kinase still bound, per cent of control: 25%
[30]
  kinase still bound, per cent of control: 32%
[31]
  kinase still bound, per cent of control: 29%
[32]
  kinase still bound, per cent of control: 26%
[33]
  kinase still bound, per cent of control: 21%

## O=C1NC(=O)C(=Cc2ccc(-c3ccc(F)cc3O)o2)C(=O)N1
[34]
  kinase still bound, per cent of control: 17%
[35]
  kinase still bound, per cent of control: 31%

## NS(=O)(=O)c1ccc(-c2cccc(/C=C3\SC(=O)NC3=O)c2)cc1
[36]
  kinase still bound, per cent of control: 4.2%
[37]
  kinase still bound, per cent of control: 26%
[38]
  kinase still bound, per cent of control: 2.2%
[16]
  kinase still bound, per cent of control: 30%
[39]
  kinase still bound, per cent of control: 16%
[40]
  kinase still bound, per cent of control: 10%
[19]
  kinase still bound, per cent of control: 4.2%
[41]
  kinase still bound, per cent of control: 1.4%
[42]
  kinase still bound, per cent of control: 5.1%
[32]
  kinase still bound, per cent of control: 18%

## COc1cc(N2CCN(C)CC2)ccc1Nc1ncc2c(n1)N1CCC[C@H]1CC(=O)N2C
[43]
  kinase still bound, per cent of control: 16%
[44]
  kinase still bound, per cent of control: 28%
[45]
  kinase still bound, per cent of control: 0.75%
[46]
  kinase still bound, per cent of control: 3.6%
[47]
  kinase still bound, per cent of control: 18%
[9]
  kinase still bound, per cent of control: 6.2%
[48]
  kinase still bound, per cent of control: 0.4%
[49]
  kinase still bound, per cent of control: 2.4%
[50]
  kinase still bound, per cent of control: 3.6%
[51]
  kinase still bound, per cent of control: 15%
[52]
  kinase still bound, per cent of control: 2.6%
[53]
  kinase still bound, per cent of control: 0.2%
[21]
  kinase still bound, per cent of control: 28%
[22]
  kinase still bound, per cent of control: 9.4%
[54]
  kinase still bound, per cent of control: 33%
[23]
  kinase still bound, per cent of control: 8.6%
[55]
  kinase still bound, per cent of control: 5%
[56]
  kinase still bound, per cent of control: 23%
[57]
  kinase still bound, per cent of control: 2.6%
[58]
  kinase still bound, per cent of control: 19%
